# Experimental data reported in patent publication US6004905A, “Hyperabas: biologically active abscisic acid analogs with unsaturated carbon substituents at the 8'-methyl or 9'-methyl carbon atoms” (National Research Council of Canada, priority 1998, dated 1999).
# Entries after “also recorded” stand apart in the source; their conditions may differ. Where two headings read alike, the source gives them in different places.
# Experiments:
# [1] = system: wheat seedlings; assay: Transpiration in wheat seedlings; format: in vivo, Triticum aestivum L. cv Katepwa; details: for reduction in transpiration: (+)-forms of methyl esters, 100 μM, 3 hours (FIG. 8); for reduction of transpiration (summary in words): in vivo; for EC50: Triticum aestivum, 3 h, intact wheat seedlings, three hours after application, read-out: concentration to reduce the transpiration rate to 50% (TR50)
# Text: ABA is a key signal molecule involved in regulating transpiration in plants (W. J. Davies T. A. Mansfield 1988 Abscisic acid and drought resistance in plants ISI Atlas of Science: Animal and Plant Sciences 0894-3761 p. 263-269). […] This difference in activity is shown in FIG. 4 in which the % transpiration effected by the (+)-forms of methyl esters of ABA (214) , 8'-methyl (370) and 8'-methylene ABA (357) are compared. The structures are as follows: [drawing 13] Seed Germination
# The transpiration rate of 6 to 10 day old wheat seedlings (Triticum aestivum L. cv Katepwa) was measured as previously described (Rose et al.^7, 1996 incorporated herein by reference). Antitranspirant activity of the analogs (prepared as a 1% ethanol solution in water) was measured over a range of concentrations to determine the concentration where the transpiration rate of the wheat seedling is reduced by 50%. The transpiration rate (μMol H2 O/cm^2 s) was calculated and then given as a percentage of the initial transpiration rate of the plant (typically 0.28-0.35 μMol H2 O/cm^2 s), corrected for the effect of the control (1% ethanol).
# ABA is a key signal molecule involved in regulating transpiration in plants. We had previously determined that esters were as active as acids in this assay (data not shown) so the effect of the methyl esters of natural ABA (+)-^8 '-methylene ABA and 8'-methyl ABA on transpiration in intact wheat seedlings was compared three hours after application. […] The difference in responses may be due to reduced uptake of the 8'-methyl ABA in the intact wheat seedling.
# [2] = system: suspension-cultured corn cells (var. Black Mexican Sweet); assay: Growth inhibition of suspension-cultured corn cells; format: cell-based, corn (maize); details: for growth inhibition activity (comparison in words): four days; for inhibition at 0.33 µM / IC50: Zea mays, 96 h; for inhibition at 0.33 µM: four day period, read-out: growth inhibition relative to the control; for IC50: four days after addition, read-out: concentration required for 50% inhibition of growth
# [3] = system: suspension-cultured corn cells; assay: Medium pH changes in corn cell suspension cultures; format: cell-based, corn (maize); details: 10 μM solution
# Protocol: Cell growth was measured by the change in fresh weight over a 4-day period, as previously described (Balsevich et al.^6, 1994). The medium pH changes associated with addition of (+)-ABA and (+)-8'-methylene ABA were also measured as described by Balsevich et al.^6, (1994).
# [4] = system: cress seed; assay: Cress seed germination inhibition; format: in vivo; details: for germination of cress seed: 5 μM (printed 5 M)
# Protocol: The experimental conditions were as follows: 100 seeds are placed on a 9 cm Whatman no. 1 filter paper in a petri dish and treated with 5 ml of solution.
# The final concentration of the ethanol in the assay solutions was <0.05%. Assays were conducted with 100 seeds in each Petri dish and performed in triplicate. The germination measurements were based on the growth of the primary root. A seed was considered germinated when the radical was approximately the same length as the seed.
# [5] = system: excised wheat embryos; assay: Wheat embryo germination inhibition; format: in vivo, Triticum aestivum L. cv. Clark's Cream; details: for concentration giving equivalent germination inhibition: (+)-8'-methylene ABA versus (+)-ABA (FIG. 12)
# Protocol: Grains of soft white wheat (Triticum aestivum L. cv. Clark's Cream) were used. For bioassay, embryos with some adhering endosperm and pericarp attached were cut from the grains with a razor blade. Analogs were prepared by dissolving into a minimal amount of DMSO to prepare a 0.1 M solution, and then diluted with […], pH 5.8, to 0.01, 0.1, 1, 10 and 100 μM. For each analog concentration six replicate germination assays were conducted on 10 embryos each at 30° C. Embryos were incubated in Petri dishes (100×15 mm) containing 6 ml solution.
# [6] = system: ABA-responsive cor6.6 promoter; assay: ABA-inducible gene expression (GUS activity) in transgenic tobacco seedlings containing Pcor6.6-GUS; format: in vivo, transgenic tobacco (promoter from Arabidopsis thaliana); details: 24 hours; for induction of GUS activity: 200 micromolar, relative to untreated control
# Text: The results shown are an average of duplicate assays on samples containing 34 seedlings.
# The results shown are an average of duplicate samples containing cotyledons from 34 seedlings.
# [7] = system: corn cells; assay: Depletion (persistence) from corn cell culture media; format: in vitro ADME, corn (maize)
# Protocol: Ethanolic stock solutions of (+)-ABA, (+)-8'-methylene ABA and (+)-8'-methyl ABA were added to flasks containing 0.2 g of corn cells and 10 ml of culture medium to obtain a final concentration of 100 μM of hormone or analog. Aliquots of medium (100 μl) were removed at intervals and analyzed for ABA or ABA analog content by HPLC as described previously (Balsevich et al.^6, 1994). Each compound was inoculated into 3 flasks and duplicate samples were removed at the indicated time points. The corn cells were used 1 or 2 days after subculturing.
# [8] = system: Black Mexican Sweet maize cells; assay: Metabolites from maize suspension cells; format: in vitro ADME; details: 100 μM, 90 h
# Protocol: Eighteen g of Black Mexican Sweet maize cells were subcultured into a 1L flask containing 500 ml sterile medium as described previously (Balsevich et al.^6, 1994). […] At the end of the culture period, the cells were removed by filtration. The filtrate was frozen until processed for isolation.
# The metabolites were extracted from the culture filtrate by a chromatographic procedure using Supelco Amberlite XAD-2 resin (Balsevich et al. 6, 1994). The crude product isolated from the resin was partially purified by preparative TLC (silica gel 60 GF254, 20 cm×20 cm×1 mm, toluene-EtOAc-HOAc 25:15:2 as eluent), giving two isomeric acids, The acids were separately reacted with diazomethane, and then further purified by HPLC as their methyl esters yielding approx. 0.5 mg of each metabolite.
# [9] = ABA-like (hormonal) activity in various assays; parameters: species or system plants; details: wheat and cress
# [10] = system: suspension-cultured corn cells (var. Black Mexican Sweet); details: Balsevich et al 1994, cited from earlier work
# [11] = system: suspension-cultured corn cells; details: Balsevich et al 1994, cited from earlier work
# [12] = system: excised wheat embryos; details: Walker-Simmons et al., 1992, cited from earlier work
smiles,measurement,setting,value
"C=CC1(C)CC(=O)C=C(C)C1(O)/C=C/C(C)=C\C(=O)OC (single isomer, unassigned; (+)) [(+)-9'-ethylene methyl ABA]",reduction in transpiration,[1],Equivalent high activity
C#CC1(C)CC(=O)C=C(C)C1(O)C=CC(C)=CC(=O)O (stereo not shown) [8'-acetylene ABA],growth inhibition activity (comparison in words),[2],more potent than ABA
"C=C[C@@]1(C)CC(=O)C=C(C)[C@]1(O)/C=C/C(C)=C\C(=O)O [(+)-8'-methylene ABA, (+) 8'-methyleneabscisic acid]",inhibition at 0.33 µM,[2],64%
same,IC50,[2],< 0.33 µM
same,growth inhibition activity (comparison in words),[2],stronger growth inhibition activity than (+)-ABA at all tested concentrations; also recorded: more effective than ABA
same,growth inhibition activity (comparison in words),[2]; listed as 8'-methylene ABA,the strongest growth inhibition produced by any ABA analog so far
same,growth inhibition activity (comparison in words),[2]; listed as (+)-methylene ABA,significantly stronger than either (+)-ABA or (+)-8'-methyl ABA
same,shift in pH of the medium,[3],causes a comparable shift in pH as that produced by ABA
same,shift in pH of the medium,[3]; listed as (+)- 8'-methylene ABA,causes as great a shift in pH as ABA
same,reduction of transpiration (summary in words),[1],more effective than ABA
same,germination inhibition of cress seed,[4]; 1 μM,more potent than ABA
same,germination of cress seed,[4],does not germinate
same,germination of cress seed,[4]; listed as 8'-Methylene analog,remain dormant
same,germination inhibition of cress seed (summary in words),[4]; in vivo,more effective than ABA
same,concentration giving equivalent germination inhibition,[5],1.0 µM
same,"times more effective than natural ABA, germination inhibition of excised wheat embryos",[5]; embryos from dormant wheat grains (FIG. 12),at least 10 times
same,"germination inhibitory activity, wheat embryos (in words)",[5]; in vivo,more active than (+)-ABA; also recorded: most potent compound over all concentrations and time points; also recorded: more effective than ABA
same,induction of ABA-responsive gene expression (in words),[6]; 100 μM,slightly weaker inducer than ABA; also recorded: highly effective in inducing ABA-responsive gene expression
same,induction of GUS activity,[6],strongly induced GUS activity
same,time by which 50% had disappeared from the medium,"[7]; corn, corn cell culture medium, 100 µM",~100 h
same,metabolites identified,[8],two isomeric epoxides
same,germination inhibition in seeds of both a monocot and a dicot,[9],more effective germination inhibitor in seeds of both a monocot and a dicot
"CC1=CC(=O)CC(C)(C)[C@@]1(O)/C=C/C(C)=C\C(=O)O [(+)-ABA, abscisic acid]",inhibition at 0.33 µM,[2],17%
same,IC50,[2],~10 µM
same,germination of cress seed,[4],begins to germinate
same,concentration giving equivalent germination inhibition,[5],10 µM
same,induction of GUS activity,[6],strongly induced GUS activity
same,time by which 50% had disappeared from the medium,"[7]; initial 100 μM, corn cell culture (FIG. 10)",≤ 24 h
same,growth inhibition (literature),[10],inhibits growth of maize suspension-cultured cells over a four day period
same,growth inhibition (literature),[10]; listed as Natural ABA,causes growth inhibition
same,shift (elevation) in pH of the medium (literature),[11]; listed as Natural ABA,causes a transient elevation of pH of the corn cell culture medium; also recorded: causes a shift in the pH of the medium of cultured corn cells
same,time of maximum of transient elevation of medium pH,[11]; after ABA addition,about 6 h
same,"germination inhibitory activity, wheat embryos (literature)",[12],equally effective in inhibiting germination
same,"germination inhibitory activity, wheat embryos (literature)",[12]; listed as ABA,both enantiomers of ABA were equally effective
CC1=CC(=O)CC(C)(C)[C@]1(O)/C=C/C(C)=C\C(=O)O [(-)-ABA],shift (elevation) in pH of the medium (literature),[11],only weakly
same,"germination inhibitory activity, wheat embryos (literature)",[12],equally effective in inhibiting germination
COC(=O)/C=C(C)\C=C\[C@@]1(O)C(C)=CC(=O)CC1(C)C [compound 214],reduction in transpiration,[1],Equivalent high activity
same,EC50,"[1]; methyl ester, unit M",25 to 50 µM
"C=C[C@@]1(C)CC(=O)C=C(C)[C@]1(O)/C=C/C(C)=C\C(=O)OC [compound 357, (+) Methyl 8'-methyleneabscisate]",EC50,[1]; methyl esters,5 to 10 µM
same,reduction of transpiration (summary in words),[1],most active analog
CC[C@@]1(C)CC(=O)C=C(C)[C@]1(O)/C=C/C(C)=C\C(=O)OC [compound 370],EC50,[1]; methyl esters,100 µM
same,reduction of transpiration (summary in words),[1],relatively weak in this assay
same,% transpiration effect (comparison in words),"[1]; methyl esters, (+)-forms, 10 μM, 3 hours (FIG. 4)",not as active as the vinyl analog
